ChEMBL document CHEMBL1201862, “PubChem BioAssay data set” (2004)
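A five-concentration, 48-hour dose response in 96-well plates underlies each endpoint, interpolated linearly between surrounding concentrations. Here, GI50 denotes the concentration required for 50% inhibition of growth.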 Activity calls are given as the source filed them. Cut-off read from the data, not from the text of the source: active = GI50 up to about 1.1 µM and inactive = higher.

Experiments:
Assay in all cases: NCI anticancer screen, dose series, 48 h
MOLT-4 = tested on: MOLT-4
SF-539 = tested on: SF-539
CCRF-CEM = tested on: CCRF-CEM
NCI-H460 = tested on: NCI-H460
NCI-H226 = tested on: NCI-H226
SF-295 = tested on: SF-295
BT-549 = tested on: BT-549
U-251 = tested on: U-251
HL-60 = tested on: HL-60
UO-31 = tested on: UO-31
SW-620 = tested on: SW-620
RXF 393 = tested on: RXF 393
UACC-257 = tested on: UACC-257
786-0 = tested on: 786-0
K562 = tested on: K562
SK-MEL-2 = tested on: SK-MEL-2
OVCAR-3 = tested on: OVCAR-3
HOP-92 = tested on: HOP-92
SK-MEL-28 = tested on: SK-MEL-28

SMILES	GI50 (MOLT-4)	GI50 (SF-539)	GI50 (CCRF-CEM)	GI50 (NCI-H460)	GI50 (NCI-H226)	GI50 (SF-295)	GI50 (BT-549)	GI50 (U-251)	GI50 (HL-60)	GI50 (UO-31)	GI50 (SW-620)	GI50 (RXF 393)	GI50 (UACC-257)	GI50 (786-0)	GI50 (K562)	GI50 (SK-MEL-2)	GI50 (OVCAR-3)	GI50 (HOP-92)	GI50 (SK-MEL-28)
COc1cc2c(cc1OC)-c1cc3cc(OC)c(OC)cc3c(=O)n1CC2	3.51 µM (inactive)	6.12 µM (inactive)	3.21 µM (inactive)	> 25.6 µM (inactive)	8.75 µM (inactive)	11.5 µM (inactive)	37.3 µM (inactive)	17.3 µM (inactive)	17.7 µM (inactive)	2.43 µM (inactive)	9.51 µM (inactive)	17.3 µM (inactive)	26.1 µM (inactive)	23.3 µM (inactive)	10.4 µM (inactive)	11.5 µM (inactive)	15.7 µM (inactive)	2.34 µM (inactive)	> 62.1 µM (inactive)
Cc1ccc(C(=O)/C=C2\Nc3ccccc3NC2=O)cc1	> 100 µM (inactive)	4.78 µM (inactive)	99.1 µM (inactive)	6.43 µM (inactive)	1.65 µM (inactive)	4.17 µM (inactive)	22.2 µM (inactive)	8.13 µM (inactive)	> 100 µM (inactive)	4.38 µM (inactive)		2.42 µM (inactive)	12.4 µM (inactive)	2.49 µM (inactive)	> 100 µM (inactive)	4.11 µM (inactive)	2.99 µM (inactive)	3.28 µM (inactive)	5.3 µM (inactive)
COc1cccc(/N=C/c2cc3cc(Br)ccc3nc2Cl)c1	7.05 µM (inactive)	13.1 µM (inactive)	4.78 µM (inactive)	13.8 µM (inactive)	5.58 µM (inactive)	39.4 µM (inactive)	47 µM (inactive)		10 µM (inactive)	12.5 µM (inactive)	11.8 µM (inactive)	13.7 µM (inactive)	44.5 µM (inactive)	2.91 µM (inactive)	8.09 µM (inactive)	13.7 µM (inactive)	34.4 µM (inactive)	30.3 µM (inactive)	> 50 µM (inactive)
CCOC(=O)Cc1csc(N/N=C2\C(=O)Nc3ccccc32)n1	29 µM (inactive)	30.7 µM (inactive)	28.4 µM (inactive)	33.4 µM (inactive)	30.2 µM (inactive)	38.7 µM (inactive)	32.7 µM (inactive)	42.4 µM (inactive)	19.7 µM (inactive)	27.3 µM (inactive)	48.9 µM (inactive)	87.1 µM (inactive)	74.5 µM (inactive)	69.5 µM (inactive)	40.4 µM (inactive)	52.6 µM (inactive)	25.3 µM (inactive)	42.2 µM (inactive)	
Brc1ccc(C2CC3(c4ccccc4)ON=C(c4ccccc4)N3c3ccccc3S2)cc1 (configuration not stated)	> 100 µM (inactive)	> 100 µM (inactive)	> 100 µM (inactive)	> 100 µM (inactive)	> 100 µM (inactive)	> 100 µM (inactive)	> 100 µM (inactive)	> 100 µM (inactive)	> 100 µM (inactive)	> 100 µM (inactive)	> 100 µM (inactive)	> 100 µM (inactive)	> 100 µM (inactive)	> 100 µM (inactive)	> 100 µM (inactive)	> 100 µM (inactive)	> 100 µM (inactive)	> 100 µM (inactive)	> 100 µM (inactive)
COC(=O)NC(Nc1ccc(C)cc1)(C(F)(F)F)C(F)(F)F	> 100 µM (inactive)	> 100 µM (inactive)	> 100 µM (inactive)	> 100 µM (inactive)	> 100 µM (inactive)	> 100 µM (inactive)	> 100 µM (inactive)	> 100 µM (inactive)	> 100 µM (inactive)	18.3 µM (inactive)	> 100 µM (inactive)	0.172 µM (active)	> 100 µM (inactive)	> 100 µM (inactive)	> 100 µM (inactive)	> 100 µM (inactive)	> 100 µM (inactive)	> 100 µM (inactive)	> 100 µM (inactive)
Cn1c(=O)n2n(c1=O)C1C(=CC2)C2C=CC1n1c(=O)n(C)c(=O)n12 (configuration not stated)	> 100 µM (inactive)	> 100 µM (inactive)	> 100 µM (inactive)	> 100 µM (inactive)	> 100 µM (inactive)	> 100 µM (inactive)	> 100 µM (inactive)	> 100 µM (inactive)	> 100 µM (inactive)	> 100 µM (inactive)	> 100 µM (inactive)	> 100 µM (inactive)	> 100 µM (inactive)	> 100 µM (inactive)	> 100 µM (inactive)	> 100 µM (inactive)	> 100 µM (inactive)	> 100 µM (inactive)	> 100 µM (inactive)
O=C1CC2(c3ccccc3)ON=C(c3ccccc3)N2c2ccccc2N1 (configuration not stated)	29.7 µM (inactive)	> 100 µM (inactive)	42.2 µM (inactive)	36.7 µM (inactive)	> 100 µM (inactive)	> 100 µM (inactive)	37.2 µM (inactive)	80.9 µM (inactive)	26.7 µM (inactive)	32.4 µM (inactive)	62.4 µM (inactive)	87.1 µM (inactive)	71.8 µM (inactive)	88.7 µM (inactive)	38.8 µM (inactive)	50.2 µM (inactive)	30.8 µM (inactive)	22.1 µM (inactive)	50.6 µM (inactive)
CC/C(Cl)=N\OC(=O)Nc1ccc(F)cc1F	1.55 µM (inactive)	7.01 µM (inactive)	1.54 µM (inactive)	29.1 µM (inactive)	17.9 µM (inactive)	26.4 µM (inactive)	2.38 µM (inactive)	22.4 µM (inactive)	1.91 µM (inactive)	14.9 µM (inactive)	1.93 µM (inactive)	12.8 µM (inactive)	17.3 µM (inactive)	4.38 µM (inactive)	0.244 µM (active)	17.4 µM (inactive)	17 µM (inactive)	1.93 µM (inactive)	17.7 µM (inactive)
N=C(N)c1ccc(/N=N\c2c(O)ccc3c2[nH]c2ccccc23)cc1	2.23 µM (inactive)	> 49.5 µM (inactive)	0.25 µM (active)	2.76 µM (inactive)	40.5 µM (inactive)	> 51.5 µM (inactive)	49.8 µM (inactive)	1.95 µM (inactive)	1.15 µM (inactive)	35.3 µM (inactive)	2.32 µM (inactive)	53.1 µM (inactive)	45.4 µM (inactive)	1.69 µM (inactive)	1.63 µM (inactive)	20.3 µM (inactive)	2.1 µM (inactive)	98.6 µM (inactive)	18.8 µM (inactive)
O/N=C1\CCc2cc3c(cc21)CCC3	> 100 µM (inactive)	> 100 µM (inactive)	> 100 µM (inactive)	> 100 µM (inactive)	> 100 µM (inactive)	> 100 µM (inactive)	> 100 µM (inactive)	> 100 µM (inactive)	67.5 µM (inactive)	> 100 µM (inactive)	> 100 µM (inactive)	> 100 µM (inactive)	> 100 µM (inactive)	> 100 µM (inactive)	> 100 µM (inactive)	> 100 µM (inactive)	> 100 µM (inactive)	55.7 µM (inactive)	> 100 µM (inactive)
Cc1cc(C)c2c(=O)n(CC(O)CN(Cc3ccccc3)CC(O)Cn3sc4nc(C)cc(C)c4c3=O)sc2n1 (configuration not stated)	3.25 µM (inactive)	17.7 µM (inactive)	6.05 µM (inactive)	19.7 µM (inactive)	18.5 µM (inactive)	22.1 µM (inactive)	23.7 µM (inactive)	16.9 µM (inactive)	33.2 µM (inactive)	17 µM (inactive)	32 µM (inactive)	18.8 µM (inactive)	17.2 µM (inactive)	14.6 µM (inactive)	24.2 µM (inactive)	17.7 µM (inactive)	16.2 µM (inactive)	17.2 µM (inactive)	27.8 µM (inactive)
O=C1C(Cl)C(c2cc3cc(Br)ccc3nc2Cl)N1c1ccc(F)c(Cl)c1 (configuration not stated)	0.594 µM (active)	1.51 µM (inactive)	0.418 µM (active)	11.7 µM (inactive)	6.7 µM (inactive)	7.14 µM (inactive)	7.52 µM (inactive)	2.77 µM (inactive)	2.47 µM (inactive)	0.118 µM (active)	5.98 µM (inactive)	5.4 µM (inactive)	11.4 µM (inactive)	1.09 µM (active)	3.07 µM (inactive)	8.83 µM (inactive)	4.13 µM (inactive)	1.31 µM (inactive)	14.6 µM (inactive)
O=C(c1ccc(Br)cc1)n1c2ccc(Br)cc2c2nc3ccccc3nc21	43.9 µM (inactive)	> 100 µM (inactive)	> 100 µM (inactive)	> 100 µM (inactive)	> 100 µM (inactive)	> 100 µM (inactive)	> 100 µM (inactive)	> 100 µM (inactive)	83.6 µM (inactive)	> 100 µM (inactive)	> 100 µM (inactive)	> 100 µM (inactive)	> 100 µM (inactive)	> 100 µM (inactive)	> 100 µM (inactive)	> 100 µM (inactive)	> 100 µM (inactive)	> 100 µM (inactive)	> 100 µM (inactive)
Cc1cc(N2CCCC2)c([N+](=O)[O-])cc1[N+](=O)[O-]	> 100 µM (inactive)	> 100 µM (inactive)	> 100 µM (inactive)	> 100 µM (inactive)	> 100 µM (inactive)	> 100 µM (inactive)	> 100 µM (inactive)	> 100 µM (inactive)	> 100 µM (inactive)	> 100 µM (inactive)	> 100 µM (inactive)	80.9 µM (inactive)	> 100 µM (inactive)	> 100 µM (inactive)	> 100 µM (inactive)	> 100 µM (inactive)	> 100 µM (inactive)	> 100 µM (inactive)	> 100 µM (inactive)
